Each block holds one compound with its values, some of them ahead of it.
Key:
[1] = test system: human lung carcinoma A549; assay: MTT assay, A549; assay type: cell-based
Description: (§6) Solutions of the platinum compounds were freshly prepared in sterile PBS before use and their concentrations quantitated by atomic absorption spectroscopy. Cells were seeded on a 96-well plate (1200 cells per well for cancer cells and 1800 cells per well for the normal lung fibroblasts) in 100 μL RPMI or DMEM media, and incubated for 24 h. […] The cells were then treated with 20 μL of 3-(4,5-dimethylthiazol-2-yl)-2,5-diphenyltetrazolium bromide (MTT) (5 mg/mL in PBS) and incubated for 4 h. The medium was removed, 100 μL of DMSO was added to the cells, and the absorbance of the purple formazan was recorded at 560 nm using a BioTek Synergy HT multi-detection microplate plate reader. Each condition was performed in triplicate and three independent experiments were carried out for each cell line.
(§7) Human prostate carcinoma (PC3) and human cervix carcinoma (HeLa) cells were obtained from the ATCC. The human lung carcinoma cell line A549 was kindly provided by David E. Root (Whitehead Institute for Biomedical Research). Cells were incubated at 37° C. in 5% CO2 and grown in RPMI (PC3) or DMEM (A549 and HeLa) medium supplemented with 10% fetal bovine serum and 1% penicillin/streptomycin. Cells were passaged every 3 to 4 days and restarted from the frozen stock upon reaching passage number 20.
(§8) Solutions of the platinum agents were freshly prepared in sterile PBS before use and the platinum content was quantitated by AAS. Cells were seeded on 96 well plates (1200 cells per well) in 100 μL RPMI or DMEM media\ and incubated for 24 hours. […] The cells were then treated with 20 μL of 3-(4,5-dimethylthiazol-2-yl)-2,5-diphenyltetrazolium bromide (MTT) (5 mg/mL in PBS) and incubated for 4 h. The medium was removed, 100 μL of DMSO were added to the cells, and the absorbance of the purple formazan was recorded at 570 nm using a BioTek Synergy HT multi-detection microplate plate reader. For each cell line, three independent experiments were carried out in triplicate.

[2] = test system: Human colon carcinoma HT29; assay: MTT assay, HT29; assay type: cell-based
Description: (§1) Human colon carcinoma HT29, human breast carcinoma MCF7, human bone sarcoma U2OS, human prostate carcinoma PC3, and human cervix carcinoma HeLa cells were obtained from the ATCC. A2780/CP70 cisplatin-resistant human ovarian cancer cells were kindly provided by Dr. Stephen B. Howell (Moores UCSD Cancer Center) and the human lung carcinoma cell lines A549 and normal lung fibroblast MRC5 by David E. Root (Whitehead Institute for Biomedical Research). Cells were incubated at 37° C. in 5% CO2 and grown in RPMI (HT29, A2780/CP70, and PC3) or DMEM (A549, MRC5, HeLa, MCF7, and U2OS) medium supplemented with 10% fetal bovine serum and 1% penicillin/streptomycin. Cells were passed every 3 to 4 days and restarted from a frozen stock upon reaching pass number 20.
(§2) Solutions of the platinum compounds were freshly prepared in sterile PBS before use and their concentrations quantitated by atomic absorption spectroscopy. […] The cells were then treated with 20 μL of 3-(4,5-dimethylthiazol-2-yl)-2,5-diphenyltetrazolium bromide (MTT) (5 mg/mL in PBS) and incubated for 4 h. The medium was removed, 100 μL of DMSO was added to the cells, and the absorbance of the purple formazan was recorded at 560 nm using a BioTek Synergy HT multi-detection microplate plate reader. Each condition was performed in triplicate and three independent experiments were carried out for each cell line.

[3] = test system: normal lung fibroblast MRC5; assay: MTT assay, MRC5; assay type: cell-based, human
Description: as §1, §2

[4] = test system: human cervix carcinoma HeLa cells; assay: MTT assay, HeLa; assay type: cell-based; conditions: 72-h incubation
Description: as §6, §7, §8

human bone sarcoma U2OS = assay: MTT assay, U2OS; assay type: cell-based; conditions: 72-h incubation
Description: as §1, §2

[5] = test system: human breast carcinoma MCF7; assay: MTT assay, MCF7; assay type: cell-based; conditions: Table 3, MCF7 Breast, 72-h incubation
Description: as §1, §2

NTera2 = assay: MTT assay, NTera2; assay type: cell-based, human; conditions: Table 3, NTera2 Testis, 72-h incubation
Description: as §6

[6] = test system: human prostate carcinoma PC3; assay: MTT assay, PC3; assay type: cell-based; conditions: Table 3, PC3 Prostate, 72-h incubation
Description: as §6, §7, §8

calf thymus DNA = assay: Ethidium bromide DNA-binding competition, Scatchard analysis; parameters: key: competitive (type A); non-competitive (type D); both (type B); No inhibition of ethidium binding is labeled as type C
Description: Using this approach, it is possible to determine whether the inhibition of ethidium binding is competitive (type A), non-competitive (type D), or both (type B). No inhibition of ethidium binding is labeled as type C.

pGLuc plasmid = assay: Platination of pGLuc plasmid; assay type: biochemical
Description: The resulting mixtures were dialyzed (molecular weight cut-off 3.5 kDa) against ddH2O overnight at 4° C. with five changes of ddH2O. The rb values (bound Pt/nucleotide) were determined by UV/Vis and atomic absorption spectroscopy.
In one embodiment, the ratio of bound platinum per plasmid was determined by measuring the Pt concentration by atomic absorption spectroscopy and the DNA concentration by UV/Vis spectroscopy.

[7] = test system: GLuc expression in A549 cells; assay: Transcription assay, globally platinated pGLuc, A549; assay type: cell-based, human; conditions: for transcription level (normalized against unplatinated plasmid): Pt/DNA ratio of […] for phenanthriplatin
Description: (§3) Transfection of transcription probes into A549 and HT29 cells with the pGLuc plasmid was carried out using liposomal transfecting agents. Determination of expression levels was tested by Luciferase assays monitored by a luminometer (J. Am. Chem. Soc. 2010, 132, 7429-7435). A549 cells were plated in 96-well plates at 2,000 cells/well and HT29 cells were plated in 96-well plates at 6,000 cells/well. After 48 h incubation (at ˜30% confluence), cells were transfected with 50 ng of platinated plasmids in 25 μL Opti-MEM and 0.125 μL Lipofectamine 2000, and subsequently 50 μL of antibiotics-free DMEM supplemented with 10% FBS. After 2 h, the cells were washed with medium and 100 μL of fresh medium was added. The experiment was carried out in quadruplicate.
(§4) GLuc activity was monitored using a luminescence plate reader (Synergy 2, BioTek, Winooski, Vt., USA). A 10 μL volume of medium at different time points (12, 24, 36, 48, 60 h) was transferred into opaque white 96-well plates, and 25 μL of GLuc assay solution (10 μM colelenterazine (NanoLight Technologies, Pinetop, Ariz., USA) in 2.5 mM acidified methanol (100 mM HCl), buffer (10 mM Tris-HCl pH 7.8, 1 mM EDTA, 0.6 M NaCl)) was added by the automatic injector of the instrument.
(§5) In another embodiment, A549 or HT29 cells were transfected using the platinated transcription probes, and transcription levels were investigated by determining GLuc expression as measured by […] following addition of coelenterazine as a substrate for the exported enzyme. The emission intensities were normalized against unplatinated plasmids as a control. Transcription profiles were obtained by plotting normalized levels of GLuc expression against platination levels (Pt/plasmid ratio) at five different time points. […] An increase in D0 value at different time points represents restoration of transcription.

[8] = test system: GLuc expression in HT29 cells; assay: Transcription assay, globally platinated pGLuc, HT29; assay type: cell-based, human; conditions: for transcription level (normalized against unplatinated plasmid): Pt/DNA ratio of […] for phenanthriplatin
Description: as §3, §4, §5

[9] = D2O at 37° C.
Description: (§9) The 1-D ^1H NMR kinetic studies were performed in duplicate as a standard time-arrayed experiment using a variable delayed list. Incremented 1-D spectra were processed in exactly the same way and signals of aromatic amine ligands from platinum compounds were integrated. The relative concentrations of the platinum compound at each time point were calculated from peak integrals. […] Reactions of platinum compounds with 5′-dGMP were performed in NMR tubes containing 2 mM of the platinum compounds and 32 mM (16 equiv) of 5′-dGMP in 10 mM PBS buffer, D2O, pH*7.4 at 37° C.

5′-dGMP = conditions: 16 equiv 5′-dGMP, 37° C., PBS pH 7.4
Description: as §9

[10] = equimolar N-AcMet, 37° C.
Description: NMR spectra were collected on a Varian 500 spectrometer equipped with a triple-resonance broadband inverse probe and a variable temperature unit. The 1-D ^1H NMR kinetic studies were performed in duplicate as a standard time-arrayed experiment using a variable delayed list. Incremented 1-D spectra were processed in exactly the same way and signals of aromatic amine ligands from platinum compounds were integrated. The relative concentrations of the platinum compound at each time point were calculated from peak integrals. […] Reactions of platinum compounds with N-AcMet were performed in NMR tubes containing 2 mM of the Pt complex and 2 mM (1 equiv) of N-AcMet in 10 mM PBS buffer, D2O, pH*7.4 at 37° C. […] Deuterated 3-(trimethylsilyl)propionic acid sodium salt (TMS-PFASS) was used as an internal standard. The pH* values are the measured pH values without correction for the effect of deuterium on the electrode.

[11] = Table 3, A549 Lung, 72-h incubation
[12] = Table 4, A549 human lung carcinoma, 72 h incubation
[13] = Table 3, HT29 Colorectal, 72-h incubation

IC50 ([1]; Table 5, A549, 72-h incubation): 62 ± 0.8 µM
IC50 ([2]; Table 5, HT29, 72-h incubation): 53.4 ± 8.5 µM
Compound: cis-[Pt(NH3)2 (1-methylimidazole)-Cl]NO3
IC50 ([3]; Table 5, MRC5, 72-h incubation): 40.5 ± 1.1 µM

Compound: N.N.O=[N+]([O-])[O-].[Cl][Pt+].c1ccc2cnccc2c1 [cis-[Pt(NH3)2(isoquinoline)Cl]NO3]
IC50 ([1]; Table 5, A549, 72-h incubation): 11.5 ± 0.4 µM
IC50 ([2]; Table 5, HT29, 72-h incubation): 45.6 ± 2.7 µM
IC50 ([3]; Table 5, MRC5, 72-h incubation): 26.4 ± 1 µM

Compound: O=[N+]([O-])[O-].[NH3+][Pt-2]([NH3+])([Cl])[n+]1cccc2c3ccccc3ccc21 (stereo not drawn) [cis-[Pt(NH3)2(benzo[f]quinoline)Cl]NO3]
IC50 ([1]; Table 5, A549, 72-h incubation): 0.83 ± 0.03 µM
IC50 ([4]; Table 5, HeLa): 0.64 ± 0.01 µM
IC50 (human bone sarcoma U2OS; Table 5, U2OS): 0.88 ± 0.01 µM

Compound: O=C1[O][Pt]2([NH][C@@H]3CCCC[C@H]3[NH]2)[O]C1=O [oxaliplatin]
IC50 [1, 11]: 6.79 ± 0.26 µM
IC50 [1, 12]: 10.5 ± 0.18 µM
IC50 ([4]; Table 3, HeLa Cervix): 11.8 ± 1.4 µM
IC50 [5]: 17.9 ± 2.7 µM
IC50 (human bone sarcoma U2OS; Table 3, U2OS Bone): 8.67 ± 0.59 µM
IC50 [2, 13]: 1.81 ± 1.15 µM
IC50 (NTera2): 1.12 ± 0.08 µM
IC50 [6]: 13.2 ± 4 µM

Compound: N.N.O=[N+]([O-])[O-].[Cl][Pt+].c1ccncc1 [pyriplatin, cis-[Pt(NH3)2(pyridine)Cl]NO3]
IC50 [1, 11]: 52.1 ± 2.3 µM
IC50 [1, 12]: 52.1 ± 2.25 µM
IC50 ([1]; Table 5, A549, 72-h incubation): 52.1 ± 2.3 µM
IC50 ([4]; Table 3, HeLa Cervix): 31.3 ± 2.8 µM
IC50 ([4]; Table 5, HeLa): 31.3 ± 2.8 µM
IC50 [5]: 109 ± 10 µM
IC50 (human bone sarcoma U2OS; Table 3, U2OS Bone): 78.9 ± 6.7 µM
IC50 (human bone sarcoma U2OS; Table 5, U2OS): 78.9 ± 6.7 µM
IC50 [2, 13]: 144 ± 10 µM
IC50 ([2]; Table 5, HT29, 72-h incubation): 144 ± 10 µM
IC50 (NTera2): 5.16 ± 0.96 µM
IC50 [6]: 47.9 ± 9.2 µM
IC50 ([3]; Table 4, MRC5 normal lung fibroblast, 72 h incubation): 92.1 ± 9.9 µM
IC50 ([3]; Table 5, MRC5, 72-h incubation): 92.1 ± 9.9 µM
type of inhibition of ethidium binding (Scatchard) (calf thymus DNA; 12-h incubation period): type C
type of inhibition of ethidium binding (Scatchard) (calf thymus DNA; 1 min incubation period): type C
Pt per plasmid (pGLuc plasmid; rf 0.0016, 16 h at 37° C.): 13.33 Pt per plasmid
rb (bound Pt/nucleotide) (pGLuc plasmid; rf 0.0016, 16 h at 37° C.): 0.0017
Pt per plasmid (pGLuc plasmid; rf 0.004, 16 h at 37° C.): 31.19 Pt per plasmid
rb (bound Pt/nucleotide) (pGLuc plasmid; rf 0.004, 16 h at 37° C.): 0.0039
Pt per plasmid (pGLuc plasmid; rf 0.0076, 16 h at 37° C.): 57.96 Pt per plasmid
rb (bound Pt/nucleotide) (pGLuc plasmid; rf 0.0076, 16 h at 37° C.): 0.0073
Pt per plasmid (pGLuc plasmid; rf 0.015, 16 h at 37° C.): 117.31 Pt per plasmid
rb (bound Pt/nucleotide) (pGLuc plasmid; rf 0.015, 16 h at 37° C.): 0.0015
transcription level (normalized against unplatinated plasmid) ([7]; A549, 12 h): 55.2%
D0 (Pt lesions per plasmid required to reduce transcription levels to 37% of control) ([7]; A549, 12 h after transfection): 39.2 Pt/plasmid
D0 (Pt lesions per plasmid required to reduce transcription levels to 37% of control) ([7]; A549, 24 h after transfection): 58.5 Pt/plasmid
D0 (Pt lesions per plasmid required to reduce transcription levels to 37% of control) ([7]; A549, 36 h after transfection): 68.8 Pt/plasmid
D0 (Pt lesions per plasmid required to reduce transcription levels to 37% of control) ([7]; A549, 48 h after transfection): 85.2 Pt/plasmid
transcription level (normalized against unplatinated plasmid) ([7]; A549, 60 h): 66.8%
D0 (Pt lesions per plasmid required to reduce transcription levels to 37% of control) ([7]; A549, 60 h after transfection): 89.1 Pt/plasmid
transcription level (normalized against unplatinated plasmid) ([8]; HT29, 12 h): 55.3%
D0 (Pt lesions per plasmid required to reduce transcription levels to 37% of control) ([8]; HT29, 12 h after transfection): 35.6 Pt/plasmid
D0 (Pt lesions per plasmid required to reduce transcription levels to 37% of control) ([8]; HT29, 24 h after transfection): 40.5 Pt/plasmid
D0 (Pt lesions per plasmid required to reduce transcription levels to 37% of control) ([8]; HT29, 36 h after transfection): 42.9 Pt/plasmid
D0 (Pt lesions per plasmid required to reduce transcription levels to 37% of control) ([8]; HT29, 48 h after transfection): 44.5 Pt/plasmid
transcription level (normalized against unplatinated plasmid) ([8]; HT29, 60 h): 75.2%
D0 (Pt lesions per plasmid required to reduce transcription levels to 37% of control) ([8]; HT29, 60 h after transfection): 49.3 Pt/plasmid
equilibrium constant for aquation [9]: approximately 0.05
time after which aquation reaction is complete (equilibrium with aqua analogue) [9]: 1 h
pseudo-first order rate constant, reaction with 5′-dGMP (5′-dGMP): 0.29 h⁻¹
reaction with N-AcMet more rapid than that for phenanthriplatin [10]: > 10 fold
second-order rate constant, reaction with N-AcMet [10]: 0.156 M⁻¹ s⁻¹
